Results from US9328099B2, “Cyanomethylpyrazole carboxamides as janus kinase inhibitors” (Merck Sharp & Dohme Corp., priority 2011, dated 2016).
pIC50: −log10 of the molar value.

Tests used:
[1] = target: JAK2 (Homo sapiens (Human), UniProt O60674); assay: Jak Biochemical HTRF Assay, JAK2; conditions: HTRF biochemical assay, GST-tagged catalytic domain; top concentration tested […]
Text: (§1) Jak Biochemical HTRF Assay Protocol
(§2) Subsequent reagent additions employed an Agilent Bravo.

[2] = target: JAK1 (Homo sapiens (Human), UniProt P23458); assay: Jak Biochemical HTRF Assay, JAK1; conditions: HTRF biochemical assay, GST-tagged catalytic domain; top concentration tested […]; read-out: JAK1 IC50
Text: as §1, §2

JAK1, sequence (P23458 875-1153): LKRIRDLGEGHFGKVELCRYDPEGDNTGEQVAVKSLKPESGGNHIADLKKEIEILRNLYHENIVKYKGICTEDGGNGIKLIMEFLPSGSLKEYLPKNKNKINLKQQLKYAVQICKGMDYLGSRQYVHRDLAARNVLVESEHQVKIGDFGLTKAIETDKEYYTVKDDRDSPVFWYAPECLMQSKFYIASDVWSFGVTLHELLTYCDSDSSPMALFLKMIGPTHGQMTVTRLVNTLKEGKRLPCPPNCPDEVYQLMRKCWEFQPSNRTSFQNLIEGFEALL
JAK2, sequence (O60674 849-1124): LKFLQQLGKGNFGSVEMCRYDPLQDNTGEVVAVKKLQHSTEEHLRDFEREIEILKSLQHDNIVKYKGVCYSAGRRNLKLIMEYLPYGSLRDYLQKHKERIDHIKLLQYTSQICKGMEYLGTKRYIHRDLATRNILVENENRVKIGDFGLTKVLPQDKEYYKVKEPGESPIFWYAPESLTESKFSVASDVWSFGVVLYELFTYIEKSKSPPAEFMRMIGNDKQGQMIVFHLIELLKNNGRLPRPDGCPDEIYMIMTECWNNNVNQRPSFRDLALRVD

## Cc1noc(-c2ccc(Nc3nn(C4(CC#N)CCN(C(=O)OC(C)(C)C)CC4)cc3C(N)=O)cc2)n1 [Example 9-30, tert-butyl 4-(4-carbamoyl-3-{[4-(3-methyl-1,2,4-oxadiazol-5-yl)phenyl]amino}-1H-pyrazol-1-yl)-4-(cyanomethyl)piperidine-1-carboxylate]
[1]
  pIC50: 8.30
[2]
  pIC50: 9.70

## N#CCC1(n2cc(C(N)=O)c(Nc3ccnc(F)c3)n2)CCN(Cc2cccc(=O)[nH]2)CC1 [Example 22-67, 1-{4-(cyanomethyl)-1-[(6-oxo-1,6-dihydropyridin-2-yl)methyl]piperidin-4-yl}-3-[(2-fluoropyridin-4-yl)amino]-1H-pyrazole-4-carboxamide]
[1]
  pIC50: 7.17
[2]
  pIC50: 9.00

## N#CCC1(n2cc(C(N)=O)c(Nc3ccccc3)n2)CCN(C(=O)Cc2ccc(C(F)(F)F)cc2)CC1 [Example 34-30, 1-[4-(cyanomethyl)-1-{[4-(trifluoromethyl)phenyl]acetyl}piperidin-4-yl]-3-(phenylamino)-1H-pyrazole-4-carboxamide]
[1]
  pIC50: 6.44
[2]
  pIC50: 7.46

## N#CCC1(n2cc(C(N)=O)c(Nc3ccnc(F)c3)n2)CCN(Cc2cnn3ccccc23)CC1 [Example 22-17]
[1]
  pIC50: 6.30
[2]
  pIC50: 7.77

## CCS(=O)(=O)N1CC(CC#N)(n2cc(C(N)=O)c(Nc3ccc(C(=O)N4CCS(=O)(=O)CC4)cc3)n2)C1 [Example 2-13, 1-[3-(cyanomethyl)-1-(ethylsulfonyl)azetidin-3-yl]-3-({4-[(1,1-dioxidothiomorpholin-4-yl)carbonyl]phenyl}amino)-1H-pyrazole-4-carboxamide]
[1]
  pIC50: 7.42
[2]
  pIC50: 7.57

## N#CCC1(n2cc(C(N)=O)c(Nc3ccccc3)n2)CCN(C(=O)CO)CC1 [Example 34-35, 1-[4-(cyanomethyl)-1-(hydroxyacetyl)piperidin-4-yl]-3-(phenylamino)-1H-pyrazole-4-carboxamide]
[1]
  pIC50: 6.61
[2]
  pIC50: 7.36

## COC(=O)Cc1ccc(Nc2nn(C3(CC#N)CCN(C(=O)OC(C)(C)C)CC3)cc2C(N)=O)cc1 [Example 12-2, tert-butyl 4-(4-carbamoyl-3-{[4-(2-methoxy-2-oxoethyl)phenyl]amino}-1H-pyrazol-1-yl)-4-(cyanomethyl)piperidine-1-carboxylate]
[1]
  pIC50: 8.52
[2]
  pIC50: 9.70

## COCC(=O)N1CCC(CC#N)(n2cc(C(N)=O)c(Nc3ccnc(F)c3)n2)CC1 [Example 34-42, 1-[4-(cyanomethyl)-1-(methoxyacetyl)piperidin-4-yl]-3-[(2-fluoropyridin-4-yl)amino]-1H-pyrazole-4-carboxamide]
[1]
  pIC50: 7.02
[2]
  pIC50: 8.52

## CC(C)(C)OC(=O)N1CC2(C1)CC(CC#N)(n1cc(C(N)=O)c(Nc3ccccc3)n1)C2 [Example 2-23, tert-butyl 6-[4-carbamoyl-3-(phenylamino)-1H-pyrazol-1-yl]-6-(cyanomethyl)-2-azaspiro[3.3]heptane-2-carboxylate]
[1]
  pIC50: 5.83
[2]
  pIC50: 6.70

## Cc1cncc(Nc2nn(C3(CC#N)CCN(C(=O)OC(C)(C)C)CC3)cc2C(N)=O)n1 [Example 13-8, tert-butyl 4-(4-carbamoyl-3-(6-methylpyrazine-2-ylamino)-1H-pyrazol-1-yl)-4-(cyanomethyl)piperidine-1-carboxylate]
[1]
  pIC50: 6.75
[2]
  pIC50: 8.05

## CC(C)(C)OC(=O)N1CCC(CC#N)(n2cc(C(N)=O)c(Nc3ccc(F)c(F)c3)n2)CC1 [Example 9-28, tert-butyl 4-{4-carbamoyl-3-[(3,4-difluorophenyl)amino]-1H-pyrazol-1-yl}-4-(cyanomethyl)piperidine-1-carboxylate]
[1]
  pIC50: 7.62
[2]
  pIC50: 9.00

## N#CCC1(n2cc(C(N)=O)c(Nc3ccccc3)n2)CCN(C(=O)OCc2ccncc2)CC1 [Example 30-40, pyridin-4-ylmethyl 4-[4-carbamoyl-3-(phenylamino)-1H-pyrazol-1-yl]-4-(cyanomethyl)piperidine-1-carboxylate]
[1]
  pIC50: 7.24
[2]
  pIC50: 8.70

## CC(=O)N1CC(CC#N)(n2cc(C(N)=O)c(Nc3ccccc3)n2)C1 [Example 32, 1-[1-Acetyl-3-(cyanomethyl)azetidin-3-yl]-3-(phenylamino)-1H-pyrazole-4-carboxamide]
[1]
  pIC50: 6.29
[2]
  pIC50: 7.03

## CC(c1ccccc1)N1CCC(CC#N)(n2cc(C(N)=O)c(Nc3ccc(F)cc3)n2)CC1 (stereo not shown) [Example 23, 1-(4-(Cyanomethyl)-1-(1-phenylethyl)piperidin-4-yl)-3-((4-fluorophenyl)amino)-1H-pyrazole-4-carboxamide]
[1]
  pIC50: 6.98
[2]
  pIC50: 8.40

## CC(C)c1ccc(CN2CCC(CC#N)(n3cc(C(N)=O)c(Nc4ccccc4)n3)CC2)cc1 [Example 21-24, 1-{4-(cyanomethyl)-1-[4-(1-methylethyl)benzyl]piperidin-4-yl}-3-(phenylamino)-1H-pyrazole-4-carboxamide]
[1]
  pIC50: 5.98
[2]
  pIC50: 6.92

## N#CCC1(n2cc(C(N)=O)c(Nc3ccc(S(=O)(=O)C(F)F)cc3)n2)CCC(N2CCC(O)CC2)CC1 (stereo not drawn) [Example 40-43, Cis or trans 1-[1-(cyanomethyl)-4-(4-hydroxypiperidin-1-yl)cyclohexyl]-3-({4-[(difluoromethyl)sulfonyl]phenyl}amino)-1H-pyrazole-4-carboxamide]
[1]
  pIC50: 7.85
[2]
  pIC50: 9.52

## N#CCC1(n2cc(C(N)=O)c(Nc3ccnc(F)c3)n2)CCN(Cc2ccccc2C#N)CC1 [Example 22-72, 1-[1-(2-cyanobenzyl)-4-(cyanomethyl)piperidin-4-yl]-3-[(2-fluoropyridin-4-yl)amino]-1H-pyrazole-4-carboxamide]
[1]
  pIC50: 7.89
[2]
  pIC50: 9.52

## Cc1ccccc1NC(=O)N1CC(CC#N)(n2cc(C(N)=O)c(Nc3ccccc3)n2)C1 [Example 38-27, 1-{3-(cyanomethyl)-1-[(2-methylphenyl)carbamoyl]azetidin-3-yl}-3-(phenylamino)-1H-pyrazole-4-carboxamide]
[1]
  pIC50: 6.79
[2]
  pIC50: 7.96

## N#CCC1(n2cc(C(N)=O)c(Nc3cccc(Cn4nnc5ccccc54)c3)n2)CCN(C(=O)OCC(F)(F)F)CC1 [Example 4-4, 2,2,2-trifluoroethyl 4-(3-{[3-(1H-benzotriazol-1-ylmethyl)phenyl]amino}-4-carbamoyl-1H-pyrazol-1-yl)-4-(cyanomethyl)piperidine-1-carboxylate]
[1]
  pIC50: 7.64
[2]
  pIC50: 9.30

## N#CCC1(n2cc(C(N)=O)c(Nc3ccnc(F)c3)n2)CCC(Nc2cccc(Cl)c2)CC1 (stereo not drawn) [Example 40-62, Cis or trans 1-{4-[(3-chlorophenyl)amino]-1-(cyanomethyl)cyclohexyl}-3-[(2-fluoropyridin-4-yl)amino]-1H-pyrazole-4-carboxamide]
[1]
  pIC50: 6.08
[2]
  pIC50: 7.42

## CCCCNC(=O)N1CC(CC#N)(n2cc(C(N)=O)c(Nc3ccccc3)n2)C1 [Example 38-5, 1-[1-(butylcarbamoyl)-3-(cyanomethyl)azetidin-3-yl]-3-(phenylamino)-1H-pyrazole-4-carboxamide]
[1]
  pIC50: 6.67
[2]
  pIC50: 8.40

## N#CCC1(n2cc(C(N)=O)c(Nc3ccnc(F)c3)n2)CCN(Cc2ccn[nH]2)CC1 [Example 22-13, 1-[4-(cyanomethyl)-1-(1H-pyrazol-5-ylmethyl)piperidin-4-yl]-3-[(2-fluoropyridin-4-yl)amino]-1H-pyrazole-4-carboxamide]
[1]
  pIC50: 7.41
[2]
  pIC50: 8.52

## N#CCC1(n2cc(C(N)=O)c(Nc3ccnc(F)c3)n2)CCN(C(=O)OCC(F)F)CC1 [Example 30-27, 2,2-difluoroethyl 4-(4-carbamoyl-3-(2-fluoropyridin-4-ylamino)-1H-pyrazol-1-yl)-4-(cyanomethyl)piperidine-1-carboxylate]
[1]
  pIC50: 8.30
[2]
  pIC50: 10.15

## CCOc1ccc(N2CCC(CC#N)(n3cc(C(N)=O)c(Nc4ccc(F)cc4)n3)CC2)cn1 [Example 3-36, 1-[4-(cyanomethyl)-1-(6-ethoxypyridin-3-yl)piperidin-4-yl]-3-[(4-fluorophenyl)amino]-1H-pyrazole-4-carboxamide]
[1]
  pIC50: 7.34
[2]
  pIC50: 8.52

## N#CCC1(n2cc(C(N)=O)c(Nc3ccccc3)n2)CCN(C(=O)c2ccc3ccccc3n2)CC1 [Example 34-32, 1-[4-(cyanomethyl)-1-(quinolin-2-ylcarbonyl)piperidin-4-yl]-3-(phenylamino)-1H-pyrazole-4-carboxamide]
[1]
  pIC50: 6.78
[2]
  pIC50: 8.22

## N#CCC1(n2cc(C(N)=O)c(Nc3ccc(F)cc3)n2)CCN(c2cccc(CF)n2)CC1 [Example 3-50, 1-{4-(cyanomethyl)-1-[6-(fluoromethyl)pyridin-2-yl]piperidin-4-yl}-3-[(4-fluorophenyl)amino]-1H-pyrazole-4-carboxamide]
[1]
  pIC50: 7.41
[2]
  pIC50: 8.52
